Test system: drug-resistant Pseudomonas aeruginosa GDMCC No: 61027 (strain C218)
Assay: Checkerboard microdilution of norharmane combined with an antibiotic (OD600 growth, MIC at 80% inhibition, FICI and ΔE evaluation)
Assay type: cell-based
Method: Preparation of bacterial solution: Pseudomonas aeruginosa GDMCC No: 61027 stored at −80° C., was thawed at room temperature, streaked on LB agar medium and cultured at 37° C. for 24 h, and then a single well-developed colony was inoculated again and cultured for 24 h at 37° C. to ensure that the strain was in the growth phase. A single colony was selected, inoculated into LB medium, and cultured at 37° C. and 200 rpm. for 16 h. The resulting solution was diluted 10000 times with fresh LB medium to obtain Pseudomonas aeruginosa GDMCC No:61027 bacterial solution whose concentration calculated by of the amount of bacterial viable count was […].
According to the checkerboard microdilution method, the norharmane mother liquor was diluted 4 times with methanol, and the concentration ranges of norharmane and an antibiotic (polymyxin B, imipenem-cilastatin sodium or levofloxacin) in combination were screened.
Methanol was used as a diluent, the preparation concentrations of norharmane were 160, 80, 40, 20, 10, 5 and 2.5 μg/mL, the preparation concentrations of polymyxin B were 31.25, 15.6, 7.8, 3.9, 1.95, 0.98 and 0.49 μg/mL; the preparation concentrations of imipenem-cilastatin sodium were 8000, 4000, 2000, 1000, 500, 250 and 125 μg/mL; the preparation concentrations of levofloxacin were 250, 125, 62.5, 31.25, 15.6, 7.8 and 3.9 μg/mL; and the preparation concentrations of ofloxacin were 2000, 1000, 500, 250, 125, 62.5, and 31.25 μg/mL.
According to FIG. 7, each antibiotic is added into a 96-well plate, and 50 μL of the antibiotic solutions were drawn and added into wells in columns 2˜8 of the %-well plate in the order of concentration from low to high, while the same amount of methanol instead of antibiotic was added into column 1. 50 μL of the norharmane solutions were drawn and added into wells in rows G˜A of the 96-well plate in the order of concentration from low to high, while no norharmane was added into wells in row H. After the 96-well plate was left to stand to evaporate methanol completely, 200 μL of the Pseudomonas aeruginosa GDMCC No: 61027 bacterial solution (2.6×10^9 CFU) were added into the wells in columns 1˜8. Therefore, the final concentrations of norharmane were 40, 20, 10, 5, 2.5, 1.25, 0.63 and 0 μg/mL; the final concentrations of norharmane were polymyxin B is 7.8, 3.9, 1.95, 0.98, 0.49, 0.24, 0.12 and 0 μg/mL; the final concentrations of imipenem-cilastatin sodium were 2000, 1000, 500, 250, 125, 62.5, 31.25 and 0 μg/mL; the final concentrations of levofloxacin were 62.5, 31.25, 15.6, 7.8, 3.9, 1.95, 0.98 and 0 μg/mL; and the final concentrations of ofloxacin were 500, 250, 125, 62.5, 31.25, 15.6, 7.8 and 0 μg/mL. 200 μL of fresh LB medium were added to column 9. Wherein, well H1 is a growth control well, containing only bacterial solution and no drugs, and column 9 is a blank control containing only LB liquid medium. The prepared 96-well plate was placed in a constant temperature incubator at 37° C. for 24 h, and then OD600 was measured with a microplate reader and the results were recorded. All experiments were repeated three times.
OD value of each well at 600 nm was measured with a microplate reader. And the percentage of the bacterial growth inhibition of each well was determined as
Loewe additivity (LA) theory assumes that the drugs applied in combination have no interaction, i.e., null reference model. FICI method is the non-parametric method of LA theory, which can be expressed as: ΣFIC=FICA+FICB=CA/MICA+CB/MICB
wherein MICA and MICB denote minimum inhibitory concentrations of two drugs A and B when used alone, respectively, and CA and CB denote concentration of drugs A and B in combination respectively while their combined effect is equal to the sum of their individual separate effects. ΣFIC value of each well with percentage of the bacterial growth inhibition >80% were calculated, and in the ΣFIC values obtained, if ΣFICmax>4, FICI=ΣFICmax; if ΣFICmax<4, FICI=ΣFICmin. […]

[1] = end point 80% growth inhibition

For `CC1COc2c(N3CCN(C)CC3)c(F)cc3c(=O)c(C(=O)O)cn1c23` (centres unmarked) [Ofloxacin, ofloxacin, reference compound], the “MIC MICB: minimum inhibitory concentration of the antibiotic when used alone” value [1] was 500 µg/mL, the Growth percentage (ofloxacin 7.8 μg/ml alone (norharmane 0)) was 83% and the Growth percentage (ofloxacin 15.6 μg/ml alone (norharmane 0)) was 79%. It also gave a Growth percentage (ofloxacin 31.25 μg/ml alone (norharmane 0)) of 73%, a Growth percentage (ofloxacin 62.5 μg/ml alone (norharmane 0)) of 67% and a Growth percentage (ofloxacin 125 μg/ml alone (norharmane 0)) of 54%. It also gave a Growth percentage (ofloxacin 250 μg/ml alone (norharmane 0)) of 36% and a Growth percentage (ofloxacin 500 μg/ml alone (norharmane 0)) of 6%.
For `C[C@H]1COc2c(N3CCN(C)CC3)c(F)cc3c(=O)c(C(=O)O)cn1c23` [Levofloxacin, levofloxacin, reference compound], the “MIC MICB: minimum inhibitory concentration of the antibiotic when used alone” value [1] was 62.5 µg/mL, the Growth percentage (levofloxacin 0.98 μg/ml alone (norharmane 0)) was 91% and the Growth percentage (levofloxacin 1.95 μg/ml alone (norharmane 0)) was 89%. For the same compound, the Growth percentage (levofloxacin 3.9 μg/ml alone (norharmane 0)) was 85%, the Growth percentage (levofloxacin 7.8 μg/ml alone (norharmane 0)) was 72% and the Growth percentage (levofloxacin 15.6 μg/ml alone (norharmane 0)) was 42%. For the same compound, the Growth percentage (levofloxacin 31.25 μg/ml alone (norharmane 0)) was 26% and the Growth percentage (levofloxacin 62.5 μg/ml alone (norharmane 0)) was 5%.
`c1ccc2c(c1)[nH]c1cnccc12` [Norharmane, norharmane] showed a Growth percentage (norharmane 0.63 μg/ml alone, imipenem-cilastatin sodium 0 (Table 2)) of 94%, a Growth percentage (norharmane 0.63 μg/ml alone, levofloxacin 0 (Table 3)) of 98% and a Growth percentage (norharmane 0.63 μg/ml alone, ofloxacin 0 (Table 4)) of 99%. For the same compound, the Growth percentage (norharmane 0.63 μg/ml alone, polymyxin B 0 (Table 1)) was 99%, the Growth percentage (norharmane 1.25 μg/ml alone, imipenem-cilastatin sodium 0 (Table 2)) was 92% and the Growth percentage (norharmane 1.25 μg/ml alone, levofloxacin 0 (Table 3)) was 94%. For the same compound, the Growth percentage (norharmane 1.25 μg/ml alone, ofloxacin 0 (Table 4)) was 98%, the Growth percentage (norharmane 1.25 μg/ml alone, polymyxin B 0 (Table 1)) was 96% and the Growth percentage (norharmane 2.5 μg/ml alone, imipenem-cilastatin sodium 0 (Table 2)) was 87%. It also gave a Growth percentage (norharmane 2.5 μg/ml alone, levofloxacin 0 (Table 3)) of 94%, a Growth percentage (norharmane 2.5 μg/ml alone, ofloxacin 0 (Table 4)) of 97% and a Growth percentage (norharmane 2.5 μg/ml alone, polymyxin B 0 (Table 1)) of 96%. It also gave a Growth percentage (norharmane 5 μg/ml alone, imipenem-cilastatin sodium 0 (Table 2)) of 87%, a Growth percentage (norharmane 5 μg/ml alone, levofloxacin 0 (Table 3)) of 92% and a Growth percentage (norharmane 5 μg/ml alone, ofloxacin 0 (Table 4)) of 95%. For the same compound, the Growth percentage (norharmane 5 μg/ml alone, polymyxin B 0 (Table 1)) was 95%, the Growth percentage (norharmane 10 μg/ml alone, imipenem-cilastatin sodium 0 (Table 2)) was 86% and the Growth percentage (norharmane 10 μg/ml alone, levofloxacin 0 (Table 3)) was 98%. For the same compound, the Growth percentage (norharmane 10 μg/ml alone, ofloxacin 0 (Table 4)) was 94%, the Growth percentage (norharmane 10 μg/ml alone, polymyxin B 0 (Table 1)) was 95% and the Growth percentage (norharmane 20 μg/ml alone, imipenem-cilastatin sodium 0 (Table 2)) was 85%. For the same compound, the Growth percentage (norharmane 20 μg/ml alone, levofloxacin 0 (Table 3)) was 95%, the Growth percentage (norharmane 20 μg/ml alone, ofloxacin 0 (Table 4)) was 88% and the Growth percentage (norharmane 20 μg/ml alone, polymyxin B 0 (Table 1)) was 95%. The Growth percentage (norharmane 40 μg/ml alone, imipenem-cilastatin sodium 0 (Table 2)) was 82%, the Growth percentage (norharmane 40 μg/ml alone, levofloxacin 0 (Table 3)) was 93% and the Growth percentage (norharmane 40 μg/ml alone, ofloxacin 0 (Table 4)) was 81%. The Growth percentage (norharmane 40 μg/ml alone, polymyxin B 0 (Table 1)) was 84% and the “MIC MICA: minimum inhibitory concentration of a drug used alone” value (norharmane used alone, end point 80% growth inhibition) was 40 µg/mL.
polymyxin B [reference compound] was tested, and the “MIC MICB: minimum inhibitory concentration of the antibiotic when used alone” value [1] was 7.8 µg/mL, the Growth percentage (polymyxin B 0.12 μg/ml alone (norharmane 0)) was 100% and the Growth percentage (polymyxin B 0.24 μg/ml alone (norharmane 0)) was 98%. The Growth percentage (polymyxin B 0.49 μg/ml alone (norharmane 0)) was 98%, the Growth percentage (polymyxin B 0.98 μg/ml alone (norharmane 0)) was 90% and the Growth percentage (polymyxin B 1.95 μg/ml alone (norharmane 0)) was 52%. It also gave a Growth percentage (polymyxin B 3.9 μg/ml alone (norharmane 0)) of 29% and a Growth percentage (polymyxin B 7.8 μg/ml alone (norharmane 0)) of 5%.
